Measured values published in patent publication US8530663B2, “1-(2-phenoxymethylheteroaryl)piperidine and piperazine compounds” (Theravance, Inc., priority 2010, dated 2013).
Marks after values point to notes of the source that are not given here.

Tests used:
hSERT [1] = biological target: T1, hSERT (Homo sapiens, UniProt P31645); assay: hSERT membrane radioligand binding assay (3H-citalopram); conditions: hSERT membranes, 1.0 nM 3H-citalopram; for Ki: read-out: SERT pKi (converted)
T1 construct: expressed in transfected cells; host or cells: HEK-293
T1 sequence (P31645 whole entry): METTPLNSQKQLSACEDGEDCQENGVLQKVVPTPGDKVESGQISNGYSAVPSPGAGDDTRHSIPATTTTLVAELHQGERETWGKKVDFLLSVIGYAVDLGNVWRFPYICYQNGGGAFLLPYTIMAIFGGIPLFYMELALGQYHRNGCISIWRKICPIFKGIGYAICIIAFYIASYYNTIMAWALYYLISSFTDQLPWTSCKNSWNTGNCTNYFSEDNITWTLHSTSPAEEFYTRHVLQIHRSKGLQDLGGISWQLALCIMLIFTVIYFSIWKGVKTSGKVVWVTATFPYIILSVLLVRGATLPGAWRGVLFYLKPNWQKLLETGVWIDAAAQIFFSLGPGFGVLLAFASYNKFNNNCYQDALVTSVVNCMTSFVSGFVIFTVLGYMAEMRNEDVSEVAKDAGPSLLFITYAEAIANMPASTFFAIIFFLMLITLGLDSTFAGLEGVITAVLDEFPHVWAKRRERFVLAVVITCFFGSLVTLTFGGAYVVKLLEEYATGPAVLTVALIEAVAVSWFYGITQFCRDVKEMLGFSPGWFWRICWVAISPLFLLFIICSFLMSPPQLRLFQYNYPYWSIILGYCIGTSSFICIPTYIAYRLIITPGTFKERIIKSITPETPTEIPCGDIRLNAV
Method: (§1) Membrane radioligand binding assays were used to measure inhibition of labeled ligand (^3H-citalopram or ^3H-nisoxetine or ^3H-WIN35428) binding to membranes prepared from cells expressing the respective human recombinant transporter (hSERT or hNET or hDAT) in order to determine the pKi values of test compounds at the transporters.
(§2) Recombinant human embryonic kidney (HEK-293) derived cell lines stably transfected with hSERT or hNET, respectively, were grown in DMEM medium supplemented with 10% dialyzed FBS (for hSERT) or FBS (for hNET), 100 μg/ml penicillin, 100 μg/ml streptomycin, 2 mM L-glutamine and 250 μg/ml of the aminoglycoside antibiotic G418, in a 5% CO2 humidified incubator at 37° C. When cultures reached 80% confluence, the cells were washed thoroughly in PBS (without Ca^2+ and Mg^2+) and lifted with 5 mM EDTA in PBS. Cells were pelleted by centrifugation, resuspended in lysis buffer (10 mM Tris-HCl, pH7.5 containing 1 mM EDTA), homogenized, pelleted by centrifugation, then resuspended in 50 mM Tris-HCl, pH 7.5 and 10% sucrose at 4° C. Protein concentration of the membrane suspension was determined using a Bio-Rad Bradford Protein Assay kit. Membranes were snap frozen and stored at −80° C. Chinese hamster ovary membranes expressing hDAT (CHO-DAT) were purchased from PerkinElmer and stored at −80° C.
(§3) Binding assays were performed in a 96-well assay plate in a total volume of 200 μL assay buffer (50 mM Tris-HCl, 120 mM NaCl, 5 mM KCl, pH 7.4) with 0.5, 1, and 3 μg membrane protein, for SERT, NET and DAT, respectively.
(§4) Stock solutions (10 mM in DMSO) of test compound were prepared and serial dilutions made using Dilution Buffer (50 mM Tris-HCl, 120 mM NaCl, 5 mM KCl, pH 7.4, 0.1% BSA, 400 μM ascorbic acid).
(§5) Following a 60 minute incubation at 22° C. (or a period sufficient to reach equilibrium), the membranes were harvested by rapid filtration over a 96-well UniFilter GF/B plate, pretreated with 0.3% polyethyleneimine, and washed 6 times with 300 μl wash buffer (50 mM Tris-HCl, 0.9% NaCl, pH 7.5 at 4° C.). Plates were dried overnight at room temperature, ˜45 μl of MicroScint™-20 (Perkin Elmer) added and bound radioactivity quantitated via liquid scintillation spectroscopy. Inhibition curves and saturation isotherms were analyzed using GraphPad Prism Software package (GraphPad Software, Inc., San Diego, Calif.). IC50 values were generated from concentration response curves using the Sigmoidal Dose Response (variable slope) algorithm in Prism GraphPad. Kd and Bmax values for the radioligand were generated from saturation isotherms using the Saturation Binding Global Fit algorithm in Prism GraphPad. pKi (negative decadic logarithm of Ki) values for test compounds were calculated from the best-fit IC50 values, and the Kd value of the radioligand, using the Cheng-Prusoff equation (Cheng & Prusoff (1973) Biochem. Pharmacol. 22(23):3099-3108): Ki=IC50/(1+[L]/Kd), where [L]=concentration radioligand.

hNET [2] = biological target: T2, hNET (Homo sapiens, UniProt P23975); assay: hNET membrane radioligand binding assay (3H-nisoxetine); conditions: hNET membranes, 1.0 nM 3H-nisoxetine; for Ki: read-out: NET pKi (converted)
T2 construct: expressed in transfected cells; host or cells: HEK-293
T2 sequence (P23975 whole entry): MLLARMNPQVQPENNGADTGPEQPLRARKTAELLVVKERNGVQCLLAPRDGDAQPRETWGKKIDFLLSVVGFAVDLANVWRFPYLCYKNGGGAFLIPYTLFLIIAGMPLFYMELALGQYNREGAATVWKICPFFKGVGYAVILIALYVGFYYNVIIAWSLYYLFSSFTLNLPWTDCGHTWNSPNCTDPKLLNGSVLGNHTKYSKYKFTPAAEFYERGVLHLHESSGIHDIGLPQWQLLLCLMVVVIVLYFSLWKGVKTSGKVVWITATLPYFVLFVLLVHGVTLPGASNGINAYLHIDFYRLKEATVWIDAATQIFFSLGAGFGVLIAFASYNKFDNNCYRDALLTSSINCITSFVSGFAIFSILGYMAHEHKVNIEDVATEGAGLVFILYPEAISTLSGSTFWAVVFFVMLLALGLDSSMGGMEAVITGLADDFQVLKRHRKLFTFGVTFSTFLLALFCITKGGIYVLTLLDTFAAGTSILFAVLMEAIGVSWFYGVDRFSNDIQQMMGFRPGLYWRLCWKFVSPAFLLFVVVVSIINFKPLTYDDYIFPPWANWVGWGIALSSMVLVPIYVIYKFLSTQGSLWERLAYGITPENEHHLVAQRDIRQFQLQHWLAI
Method: as §1, §2, §3, §4, §5

hSERT [3] = biological target: T1, hSERT; assay: fluorescence-based serotonin reuptake assay (Tsuruda et al. 2010; data with asterisk); type: cell-based; conditions: serotonin reuptake inhibition, fluorescence-based assay (data indicated by an asterisk); for IC50: read-out: SERT pIC50 (converted)
hNET [4] = biological target: T2, hNET; assay: fluorescence-based norepinephrine reuptake assay (Tsuruda et al. 2010; data with asterisk); type: cell-based; conditions: norepinephrine reuptake inhibition, fluorescence-based assay (data indicated by an asterisk); for IC50: read-out: NET pIC50 (converted)

Row | SERT pKi (hSERT [1]) | NET pKi (hNET [2]) | Compound | other results
1 |  |  | Fc1cc(F)c(OCc2ncccc2C2CCNCC2)c(F)c1 [Example 1, 2-(2,4,6-Trifluorophenoxymethyl)-1′,2′,3′,4′,5′,6′-hexahydro[3,4]bipyridinyl] | Ki (hSERT [1]): ≤ 100 nM; Ki (hNET [2]): ≤ 100 nM
2 | ≧5.0 | ≧6.0 | c1ccc(OCc2ncccc2C2CCNCC2)cc1 [Example 2-1] | 
3 | ≧6.0 | ≧7.0 | Fc1ccccc1OCc1ncccc1C1CCNCC1 [Example 2-2] | 
4 | ≧7.0 | ≧5.0 | Clc1cccc(OCc2ncccc2C2CCNCC2)c1 [Example 2-3] | 
5 | ≧6.0 | ≧7.0 | Fc1cccc(F)c1OCc1ncccc1C1CCNCC1 [Example 2-4] | 
6 | ≧7.0 | ≧7.0 | Fc1cccc(Cl)c1OCc1ncccc1C1CCNCC1 [Example 2-5] | 
7 | ≧7.0 | ≧7.0 | Clc1cccc(Cl)c1OCc1ncccc1C1CCNCC1 [Example 2-6] | 
8 | ≧7.0 | ≧6.0 | Fc1ccc(F)c(OCc2ncccc2C2CCNCC2)c1F [Example 2-7] | 
9 | ≧7.0 | ≧6.0 | Fc1cc(Cl)cc(F)c1OCc1ncccc1C1CCNCC1 [Example 2-8] | 
10 | ≧7.0 | ≧6.0 | Fc1ccc(F)c(OCc2ncccc2C2CCNCC2)c1Cl [Example 2-9] | SERT pIC50 (hSERT [3]): ≧7.0*; NET pIC50 (hNET [4]): ≧7.0*
11 |  |  | Fc1cccc(F)c1OCc1cnccc1C1CCNCC1 [Example 5, 3′-(2,6-Difluorophenoxymethyl)-1,2,3,4,5,6-hexahydro[4,4′]bipyridinyl] | Ki (hSERT [1]): ≤ 100 nM; Ki (hNET [2]): ≤ 100 nM
12 | ≧6.0 | ≧5.0 | c1ccc(OCc2cnccc2C2CCNCC2)cc1 [Example 6-1] | 
13 | ≧7.0 | ≧6.0 | Fc1ccccc1OCc1cnccc1C1CCNCC1 [Example 6-2] | 
14 | ≧7.0 | ≧5.0 | Clc1cccc(OCc2cnccc2C2CCNCC2)c1 [Example 6-3] | 
15 | ≧7.0 | ≧7.0 | Fc1cccc(Cl)c1OCc1cnccc1C1CCNCC1 [Example 6-4] | 
16 | ≧7.0 | ≧7.0 | Clc1cccc(Cl)c1OCc1cnccc1C1CCNCC1 [Example 6-5] | 
17 | ≧7.0 | ≧6.0 | Fc1ccc(F)c(OCc2cnccc2C2CCNCC2)c1F [Example 6-6] | 
18 | ≧7.0 | ≧7.0 | Fc1cc(F)c(OCc2cnccc2C2CCNCC2)c(F)c1 [Example 6-7] | 
19 | ≧7.0 | ≧6.0 | Fc1cc(Cl)cc(F)c1OCc1cnccc1C1CCNCC1 [Example 6-8] | 
20 | ≧7.0 | ≧7.0 | Fc1ccc(F)c(OCc2cnccc2C2CCNCC2)c1Cl [Example 6-9] | 
21 | ≧6.0 | ≧6.0 | c1ccc(OCc2ccncc2C2CCNCC2)cc1 [Example 10-1] | 
22 | ≧7.0 | ≧7.0 | Fc1ccccc1OCc1ccncc1C1CCNCC1 [Example 10-2] | 
23 | ≧7.0 | ≧7.0 | Fc1cccc(F)c1OCc1ccncc1C1CCNCC1 [Example 10-3] | 
24 | ≧7.0 | ≧7.0 | Clc1cccc(Cl)c1OCc1ccncc1C1CCNCC1 [Example 10-5] | 
25 | ≧7.0 | ≧6.0 | Clc1cccc(OCc2ccncc2C2CCNCC2)c1 [Example 10-6] | 
26 | ≧7.0 | ≧7.0 | Fc1ccc(F)c(OCc2ccncc2C2CCNCC2)c1F [Example 10-7] | 
27 | ≧7.0 | ≧7.0 | Fc1cc(Cl)cc(F)c1OCc1ccncc1C1CCNCC1 [Example 10-8] | 

Row | SERT pKi (hSERT [1]) | NET pKi (hNET [2]) | Compound | other results
28 | ≧7.0 | ≧7.0 | Fc1ccc(F)c(OCc2ccncc2C2CCNCC2)c1Cl [Example 10-9] | 
29 | ≧6.0 | ≧6.0 | c1ccc(OCc2cccnc2C2CCNCC2)cc1 [Example 14-1] | 
30 | ≧6.0 | ≧7.0 | Fc1ccccc1OCc1cccnc1C1CCNCC1 [Example 14-2] | 
31 | ≧7.0 | ≧5.0 | Clc1cccc(OCc2cccnc2C2CCNCC2)c1 [Example 14-3] | 
32 | ≧6.0 | ≧7.0 | Fc1cccc(F)c1OCc1cccnc1C1CCNCC1 [Example 14-4] | 
33 | ≧7.0 | ≧7.0 | Fc1cccc(Cl)c1OCc1cccnc1C1CCNCC1 [Example 14-5] | 
34 | ≧7.0 | ≧7.0 | Clc1cccc(Cl)c1OCc1cccnc1C1CCNCC1 [Example 14-6] | 
35 | ≧7.0 | ≧7.0 | Fc1ccc(F)c(OCc2cccnc2C2CCNCC2)c1F [Example 14-7] | 
36 | ≧7.0 | ≧7.0 | Fc1cc(Cl)cc(F)c1OCc1cccnc1C1CCNCC1 [Example 14-8] | 
37 |  |  | c1ccc(OCc2occc2C2CCNCC2)cc1 [Example 17, 4-(2-Phenoxymethylfuran-3-yl)piperidine] | IC50 (hSERT [3]): ≤ 100 nM; IC50 (hNET [4]): ≤ 100 nM
38 |  |  | Clc1cccc(Cl)c1OCc1occc1C1CCNCC1 [Example 18-1] | SERT pIC50 (hSERT [3]): ≧7.0*; NET pIC50 (hNET [4]): ≧4.5*
39 |  |  | Clc1cccc(OCc2occc2C2CCNCC2)c1 [Example 18-2] | SERT pIC50 (hSERT [3]): ≧7.0*; NET pIC50 (hNET [4]): ≧7.0*
40 |  |  | Fc1cccc(F)c1OCc1occc1C1CCNCC1 [Example 18-3] | SERT pIC50 (hSERT [3]): ≧6.0*; NET pIC50 (hNET [4]): ≧5.0*
41 |  |  | Clc1cccc(OCc2ccoc2C2CCNCC2)c1 [Example 21, 4-[3-(3-Chlorophenoxymethyl)furan-2-yl]piperidine] | IC50 (hSERT [3]): ≤ 100 nM; IC50 (hNET [4]): ≤ 100 nM
42 |  |  | c1ccc(OCc2ccoc2C2CCNCC2)cc1 [Example 22-1] | SERT pIC50 (hSERT [3]): ≧6.0*; NET pIC50 (hNET [4]): ≧7.0*
43 |  |  | Fc1cccc(F)c1OCc1ccoc1C1CCNCC1 [Example 22-2] | SERT pIC50 (hSERT [3]): ≧5.0*; NET pIC50 (hNET [4]): ≧6.0*
44 | ≧7.0 | ≧5.0 | Clc1cccc(Cl)c1OCc1sccc1C1CCNCC1 [Example 25-1] | 
45 | ≧6.0 | ≧6.0 | Fc1cccc(F)c1OCc1sccc1C1CCNCC1 [Example 25-2] | 
46 | ≧7.0 | ≧5.0 | Fc1cccc(Cl)c1OCc1sccc1C1CCNCC1 [Example 25-3] | 
47 | ≧6.0 | ≧6.0 | Fc1ccc(F)c(OCc2sccc2C2CCNCC2)c1F [Example 25-4] | 
48 | ≧7.0 | ≧7.0 | Fc1ccccc1OCc1cscc1C1CCNCC1 [Example 28-1] | 
49 | ≧7.0 | ≧6.0 | Clc1cccc(OCc2cscc2C2CCNCC2)c1 [Example 28-2] | 
50 | ≧7.0 | ≧7.0 | Fc1cc(Cl)cc(F)c1OCc1cscc1C1CCNCC1 [Example 28-4] | 
51 | ≧7.0 | ≧7.0 | Fc1ccc(F)c(OCc2cscc2C2CCNCC2)c1Cl [Example 28-5] | 
52 |  |  | c1ccc(OCc2ccsc2C2CCNCC2)cc1 [Example 30, 4-(3-Phenoxymethylthiophen-2-yl)piperidine] | Ki (hSERT [1]): ≤ 100 nM; Ki (hNET [2]): ≤ 100 nM
53 | ≧6.0 | ≧7.0 | Fc1ccccc1OCc1ccsc1C1CCNCC1 [Example 31-1] | 
54 | ≧7.0 | ≧7.0 | Fc1cc(Cl)cc(F)c1OCc1ccsc1C1CCNCC1 [Example 31-4] | 
